These results are taken from patent US11535599B2, “Benzisoxazole derivative” (Sumitomo Pharma Co., Ltd., priority 2020, dated 2022).

One assay relates to mouse elevated plus maze. The experiment in a line: Anxiolytic-like action, mouse elevated plus maze. The format is in vivo. The following applies: Example 13 at 10 mg/kg or more oral; diazepam 3 mg/kg oral. The protocol:
In Parkinson's disease, psychiatric symptom (e.g. depression, anxiety) is known as one of its non-motor symptoms. The anxiolytic-like action of the present invention was evaluated with mouse elevated plus maze. The present test is broadly used as a method for evaluating the anxiolytic-like action of agents.
In the present test, male Crl: CD1 (ICR) mice (CHARLES RIVER LABORATORIES JAPAN, INC.) were used. One hour before the test was started, the solvent, the compound of Example 13 (3 mg/kg, 10 mg/kg, 30 mg/kg, or 100 mg/kg), or diazepam (3 mg/kg) which is a positive control was orally administered to the mouse. The mouse was put into a center platform in which the illuminance was adjusted to 80-100 Lux level. The head of the mouse was set toward the closed arm, and then the test was started. The mouse was allowed to explore freely for 5 minutes. When ⅓ of the mouse's body entered the arm, the behavior was counted as arm entry. And, the time spent in the open arm was also measured with a stopwatch. The ratio of the count of the open arm entry per the count of the all arm entry, and the ratio of the time spent in the open arm per the total exploration time (5 minutes) were calculated. […] Thus, the ratio of the count of the open arm entry per the count of the all arm entry, and the ratio of the time spent in the open arm per the total exploration time tend to be small values. When these ratios in the drug administration group are higher than those of the solvent administration group, it can be judged that the drug has anxiolytic-like action.

Another assay concerns the target human Cav3.1 (Homo sapiens (Human), UniProt O43497). As to the kind of experiment: T-type calcium channel inhibitory activity, whole-cell patch-clamp with HEK293 cell. It counts as cell-based. As to the method:
(§1) The inhibitory activity of the present compounds for T-type calcium channel was measured by whole-cell patch-clamp method with HEK293 cell (vendor of HEK 293 cell: ATCC, Manassas, Va., USA, builder of expressing cell: ChanTest Corporation., Cleveland, Ohio, USA), in which human Cav3.1, human Cav3.2, or human Cav3.3 is expressed. The culture medium used for HEK293 cell was prepared by adding fetal bovine serum (10%), sodium penicillin G (100 U/mL), streptomycin sulfate (100 μg/mL), and G418 (500 μg/mL) to a mixture medium of Dulbecco's modified Eagle's medium/Ham's F-12 medium. The whole-cell current was evaluated with IonWorks Barracuda system and Population Patch Clamp (both are provided by Molecular Device Corporation, Union City, Calif., USA). The extracellular recording solution used during the recording was Hanks' balanced salt solution. The internal recording solution used herein was 50 mmol/L CsCl, 90 mmol/L CsF, 5 mmol/L MgCl2, 1 mmol/L glycol ether diamine tetraacetic acid (EGTA), and 10 mmol/L 4-(2-hydroxyethyl)piperazine-1-ethanesulfonic acid (HEPES (pH 7.2). The holding voltage was held at −90 mV, then changed to −65 mV. 60 seconds later, −20 mV pulse was added thereto for 200 millisecond to activate the channel on plasma membrane and generate calcium current. The calcium current was recorded with an amplifier of IonWorks Barracuda system, and analyzed with a program of the system (Version 2.0.2). The record of the calcium current was obtained twice, before and after the addition of the compound. In the measurement after adding the compound, the cells were exposed to the recording solution containing the compound for more than 5 minutes and then the current was measured. In the analyses, the ratio of current readout after the compound addition per current readout before the compound addition was calculated, the calculated value was subtracted from one, and the obtained value was converted to percentage. […] The value obtained from each compound was canonicalized based on the two ends of values to obtain each inhibitory rate. The positive control compound used herein was TTA-A2 which is known as T-type calcium channel inhibitor. IC50 value was calculated with Hill equation.
(§2) Each inhibitory rate (%) against T-type calcium channel at the evaluation concentration of the present compound (600 μmol/L) is shown in Table 12, in which the parenthesized values are IC50 values (μmol/L)) calculated from the dose-reactive test.
(In general: In patch-clamp work, channel activity is measured electrically.)

The next assay concerns the target human Cav3.2 (Homo sapiens (Human), UniProt O95180). The assay is described as above. It counts as cell-based. As to the method:
as §1, §2

The next assay concerns the target human Cav3.3 (Homo sapiens (Human), UniProt Q9P0X4). The description is as above. The format is cell-based. The protocol:
as §1, §2

Assay [1] relates to unilateral lesion model of nigrostriatal dopamine neuron induced with 6-OHDA. As to the kind of experiment: Extending duration of levodopa-induced rotational behavior in 6-OHDA unilateral lesion model. The following applies: Examples 10 or 30 mg/kg oral; rasagiline 0.6 mg/kg; with levodopa 5 mg/kg i.p. The format is in vivo, rat.
For the next assay, the target named is Rat striatum MAOB (Rattus norvegicus (Rat), UniProt P19643). As to the kind of experiment: Activity for inhibiting monoamine oxidase B (MAOB). The format is biochemical. The following applies: [14C] β-PEA substrate; read-out: Rat striatum MAOB IC50. As to the method: MAOB is an enzyme involved in oxidative de-amino acid reaction of an endogenous monoamine neurotransmitter such as dopamine. […] The effect of the present compounds for inhibiting MAOB in rat striatum and simian striatum was tested.
Chain of Rat striatum MAOB (P19643 whole entry): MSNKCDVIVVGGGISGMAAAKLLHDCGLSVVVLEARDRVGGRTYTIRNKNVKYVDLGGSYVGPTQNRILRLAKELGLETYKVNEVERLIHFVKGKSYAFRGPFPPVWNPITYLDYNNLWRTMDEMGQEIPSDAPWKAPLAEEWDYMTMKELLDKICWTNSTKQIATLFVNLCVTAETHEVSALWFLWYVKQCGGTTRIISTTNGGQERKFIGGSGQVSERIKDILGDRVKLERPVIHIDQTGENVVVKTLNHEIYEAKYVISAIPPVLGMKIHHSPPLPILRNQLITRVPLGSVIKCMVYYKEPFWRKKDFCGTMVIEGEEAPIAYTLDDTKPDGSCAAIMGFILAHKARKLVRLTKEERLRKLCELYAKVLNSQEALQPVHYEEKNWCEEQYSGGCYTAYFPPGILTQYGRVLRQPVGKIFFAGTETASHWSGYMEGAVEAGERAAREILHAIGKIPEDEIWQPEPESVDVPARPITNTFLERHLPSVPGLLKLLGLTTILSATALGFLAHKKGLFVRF
Mitochondria⋅synaptosome fraction containing MAOB was prepared according to the following procedure. To striata of male Slc: Wistar rat (Japan SLC, Inc.) or male cynomolgus monkey (HAMRI CO., LTD.) was added 0.32 mol/L aqueous sucrose by 10 mL per 1 gram as wet weight of the tissue, and the mixture was homogenized. The homogenate was centrifuged at 4° C. at 1,000 g for 10 minutes, and the obtained supernatant was centrifuged again at 4° C. at 17,200 g for 20 minutes. To the obtained precipitate was added a prepared buffer solution (10 mmol/L Tris-HCl buffer solution (pH 7.4), 0.25 mol/L aqueous sucrose, 0.5 mmol/L EDTA-2K) by 10 mL per 1 gram as wet weight of the original tissue, and the mixture was centrifuged again at 4° C. at 17,200 g for 20 minutes. To the obtained precipitate was added the prepared buffer solution by 40 mL per 1 gram as wet weight of the original tissue. The mixture was suspended to be used as an enzyme homogenate solution.
As a substance to be degraded by MAOB, ^14C-labeled β-phenylethylamine ([^14C] β-PEA) was used. [^14C] β-PEA and the present compound solution diluted to each concentration were incubated with the enzyme homogenate solution at 37° C. for a given period, and then the reaction was stopped by adding 3 mol/L cold HCl thereto. The reaction product was extracted with a mixture of water-saturated toluene and ethyl acetate (1:1). The supernatant organic layer was separated, a liquid scintillation cocktail (ACSII, GE Healthcare) was added to the separated organic layer, and the radioactivity was measured with a liquid scintillation counter (TRI-CARB 3100TR, Packard). The IC50 value of each compound was determined based on two parameter logistic model with the inhibitory data of each concentration, said data were obtained from plural trials.

For assay [2], the system named is harmaline-induced essential tremor model. As to the kind of experiment: Anti-tremor effect in harmaline-induced essential tremor model. It counts as in vivo, mouse. The following applies: Examples 1, 13: 25 or 50 mg/kg, Example 14: 3.125-25 mg/kg oral; β-propranolol 10 mg/kg i.p. As to the method: As an animal model of essential tremor, an animal administrated with harmaline is broadly used in its evaluation test. […] The effect of the present compounds for harmaline-acute-administration-induced tremor was studied. To male Crl: CD1 mice (6-7 weeks old) (CHARLES RIVER LABORATORIES JAPAN, INC.), harmaline (30 mg/kg) was intraperitoneally administered to induce tremor. The present compound (Example 1 (25 mg/kg or 50 mg/kg), Example 13 (25 mg/kg or 50 mg/kg), or Example 14 (3.125 mg/kg, 6.25 mg/kg, 12.5 mg/kg, or 25 mg/kg)) was orally administered to the mouse one hour before the administration of harmaline. And, saline or β-propranolol (10 mg/kg) which is a positive control compound was intraperitoneally administered to the mouse 20 minutes before the administration of harmaline. 35 minutes before the administration of harmaline, the mouse was put into a measurement cage (an acrylic cylinder set in a horizontal direction, φ 65 mm, length 145 mm), one cage to one mouse, said measurement cage was in a soundproof box of a startle response instrument (O'hara & Co., Ltd., Tokyo). The trembling that the mouse gave were recorded over time as tremor data. The animal was put into cage, and the data were recorded for 20 minutes just before (PRE) and just after (POST) the administration of harmaline. The time-series signal data were analyzed about frequency with an analysis software, VitalTracer and BIMUTAS II-A (both, Kissei Comtech Co., Ltd., Matsumoto-shi). At 12-15 Hz or 12-18 Hz as a frequency which increases with tremor, the spectrum amounts were extracted, and the tremor intensity T of each subject was calculated according to the following formula. T=POST/PRE

The target in the next assay is human CA-II (Homo sapiens (Human), UniProt P00918). As to the kind of experiment: Activity for inhibiting carbonic anhydrase (CA). It counts as biochemical. The following applies: 4-nitrophenyl acetate substrate. The protocol: CA is a zinc metalloenzyme family which catalyzes reversible hydration between carbon dioxide, and bicarbonate and proton.
As a substance for decomposition by CA-II, 4-nitrophenyl acetate was used herein. 4-Nitrophenyl acetate is […] with CA-II to produce 4-nitrophenol. […] To the diluted solution were added […] (final concentration: 5 mmol/L) and the present compound of each concentration, and the mixture was incubated at 37° C. under shading for 30 minutes. […] The IC50 of the compound was obtained through the two-parameter logistic model with the inhibitory rate data in each concentration which was obtained from plural trials.

In general, pIC50 refers to the IC50 on a negative log10 scale, so that one unit is a factor of ten.

pIC50: −log10 of the molar value.

Chain of human Cav3.1 (O43497 whole entry): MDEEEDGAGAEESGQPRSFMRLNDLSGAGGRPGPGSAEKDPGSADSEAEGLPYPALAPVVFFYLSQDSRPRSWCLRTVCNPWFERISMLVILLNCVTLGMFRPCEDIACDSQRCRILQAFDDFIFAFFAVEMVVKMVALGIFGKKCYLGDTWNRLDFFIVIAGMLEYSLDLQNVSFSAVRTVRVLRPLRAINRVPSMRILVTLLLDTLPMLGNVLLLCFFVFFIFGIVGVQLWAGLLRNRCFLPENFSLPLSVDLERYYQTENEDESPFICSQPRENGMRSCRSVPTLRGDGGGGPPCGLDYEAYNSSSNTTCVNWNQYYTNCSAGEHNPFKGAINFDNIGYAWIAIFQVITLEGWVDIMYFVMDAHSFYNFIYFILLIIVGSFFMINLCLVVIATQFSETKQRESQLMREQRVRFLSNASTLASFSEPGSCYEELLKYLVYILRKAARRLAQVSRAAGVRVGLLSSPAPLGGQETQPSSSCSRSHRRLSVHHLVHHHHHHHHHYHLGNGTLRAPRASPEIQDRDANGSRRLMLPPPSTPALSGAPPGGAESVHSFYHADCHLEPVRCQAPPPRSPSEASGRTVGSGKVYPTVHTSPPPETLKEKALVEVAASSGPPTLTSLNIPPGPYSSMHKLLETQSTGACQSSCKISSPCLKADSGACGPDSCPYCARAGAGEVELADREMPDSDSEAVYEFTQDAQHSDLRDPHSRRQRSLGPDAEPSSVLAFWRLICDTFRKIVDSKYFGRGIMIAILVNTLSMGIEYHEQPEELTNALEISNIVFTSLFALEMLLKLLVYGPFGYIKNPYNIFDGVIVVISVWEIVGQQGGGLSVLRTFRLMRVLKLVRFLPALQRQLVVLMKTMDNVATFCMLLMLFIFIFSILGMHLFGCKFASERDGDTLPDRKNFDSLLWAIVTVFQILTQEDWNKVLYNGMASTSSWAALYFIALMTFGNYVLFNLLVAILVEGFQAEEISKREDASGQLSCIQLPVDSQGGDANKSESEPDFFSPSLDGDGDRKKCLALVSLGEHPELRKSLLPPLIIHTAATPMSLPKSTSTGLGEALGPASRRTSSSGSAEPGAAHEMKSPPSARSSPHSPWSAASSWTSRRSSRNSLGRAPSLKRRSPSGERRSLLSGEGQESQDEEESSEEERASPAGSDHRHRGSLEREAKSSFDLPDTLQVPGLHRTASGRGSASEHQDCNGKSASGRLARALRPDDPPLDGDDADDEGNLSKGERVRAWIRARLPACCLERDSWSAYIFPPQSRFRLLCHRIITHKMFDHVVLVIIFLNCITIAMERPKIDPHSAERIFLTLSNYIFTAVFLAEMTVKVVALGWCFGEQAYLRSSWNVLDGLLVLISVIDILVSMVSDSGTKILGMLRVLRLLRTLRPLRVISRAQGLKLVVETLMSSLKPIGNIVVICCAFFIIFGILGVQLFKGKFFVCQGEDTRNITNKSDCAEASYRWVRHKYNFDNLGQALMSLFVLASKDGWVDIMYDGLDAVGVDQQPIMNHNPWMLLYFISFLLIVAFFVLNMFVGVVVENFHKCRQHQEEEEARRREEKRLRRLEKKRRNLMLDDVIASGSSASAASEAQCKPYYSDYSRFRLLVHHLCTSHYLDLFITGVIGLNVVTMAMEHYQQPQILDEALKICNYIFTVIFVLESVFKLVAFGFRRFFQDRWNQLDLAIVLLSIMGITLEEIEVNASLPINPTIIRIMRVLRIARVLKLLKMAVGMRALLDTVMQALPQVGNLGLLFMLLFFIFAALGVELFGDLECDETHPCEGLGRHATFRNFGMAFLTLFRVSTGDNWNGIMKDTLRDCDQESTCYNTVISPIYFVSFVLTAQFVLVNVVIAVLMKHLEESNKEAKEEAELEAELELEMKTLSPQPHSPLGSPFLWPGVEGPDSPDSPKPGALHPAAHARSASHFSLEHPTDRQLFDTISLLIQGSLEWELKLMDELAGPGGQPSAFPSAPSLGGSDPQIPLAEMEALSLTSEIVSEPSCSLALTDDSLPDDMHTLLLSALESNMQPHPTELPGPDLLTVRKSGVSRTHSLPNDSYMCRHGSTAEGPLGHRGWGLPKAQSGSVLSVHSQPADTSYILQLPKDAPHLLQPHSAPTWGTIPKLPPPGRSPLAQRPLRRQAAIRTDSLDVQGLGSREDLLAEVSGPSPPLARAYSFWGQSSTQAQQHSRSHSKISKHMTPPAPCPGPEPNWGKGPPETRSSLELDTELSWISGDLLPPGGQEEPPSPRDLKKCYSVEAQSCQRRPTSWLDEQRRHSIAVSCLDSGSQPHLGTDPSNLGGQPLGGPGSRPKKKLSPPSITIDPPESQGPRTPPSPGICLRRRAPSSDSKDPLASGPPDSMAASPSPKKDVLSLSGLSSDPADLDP
Chain of human Cav3.3 (Q9P0X4 whole entry): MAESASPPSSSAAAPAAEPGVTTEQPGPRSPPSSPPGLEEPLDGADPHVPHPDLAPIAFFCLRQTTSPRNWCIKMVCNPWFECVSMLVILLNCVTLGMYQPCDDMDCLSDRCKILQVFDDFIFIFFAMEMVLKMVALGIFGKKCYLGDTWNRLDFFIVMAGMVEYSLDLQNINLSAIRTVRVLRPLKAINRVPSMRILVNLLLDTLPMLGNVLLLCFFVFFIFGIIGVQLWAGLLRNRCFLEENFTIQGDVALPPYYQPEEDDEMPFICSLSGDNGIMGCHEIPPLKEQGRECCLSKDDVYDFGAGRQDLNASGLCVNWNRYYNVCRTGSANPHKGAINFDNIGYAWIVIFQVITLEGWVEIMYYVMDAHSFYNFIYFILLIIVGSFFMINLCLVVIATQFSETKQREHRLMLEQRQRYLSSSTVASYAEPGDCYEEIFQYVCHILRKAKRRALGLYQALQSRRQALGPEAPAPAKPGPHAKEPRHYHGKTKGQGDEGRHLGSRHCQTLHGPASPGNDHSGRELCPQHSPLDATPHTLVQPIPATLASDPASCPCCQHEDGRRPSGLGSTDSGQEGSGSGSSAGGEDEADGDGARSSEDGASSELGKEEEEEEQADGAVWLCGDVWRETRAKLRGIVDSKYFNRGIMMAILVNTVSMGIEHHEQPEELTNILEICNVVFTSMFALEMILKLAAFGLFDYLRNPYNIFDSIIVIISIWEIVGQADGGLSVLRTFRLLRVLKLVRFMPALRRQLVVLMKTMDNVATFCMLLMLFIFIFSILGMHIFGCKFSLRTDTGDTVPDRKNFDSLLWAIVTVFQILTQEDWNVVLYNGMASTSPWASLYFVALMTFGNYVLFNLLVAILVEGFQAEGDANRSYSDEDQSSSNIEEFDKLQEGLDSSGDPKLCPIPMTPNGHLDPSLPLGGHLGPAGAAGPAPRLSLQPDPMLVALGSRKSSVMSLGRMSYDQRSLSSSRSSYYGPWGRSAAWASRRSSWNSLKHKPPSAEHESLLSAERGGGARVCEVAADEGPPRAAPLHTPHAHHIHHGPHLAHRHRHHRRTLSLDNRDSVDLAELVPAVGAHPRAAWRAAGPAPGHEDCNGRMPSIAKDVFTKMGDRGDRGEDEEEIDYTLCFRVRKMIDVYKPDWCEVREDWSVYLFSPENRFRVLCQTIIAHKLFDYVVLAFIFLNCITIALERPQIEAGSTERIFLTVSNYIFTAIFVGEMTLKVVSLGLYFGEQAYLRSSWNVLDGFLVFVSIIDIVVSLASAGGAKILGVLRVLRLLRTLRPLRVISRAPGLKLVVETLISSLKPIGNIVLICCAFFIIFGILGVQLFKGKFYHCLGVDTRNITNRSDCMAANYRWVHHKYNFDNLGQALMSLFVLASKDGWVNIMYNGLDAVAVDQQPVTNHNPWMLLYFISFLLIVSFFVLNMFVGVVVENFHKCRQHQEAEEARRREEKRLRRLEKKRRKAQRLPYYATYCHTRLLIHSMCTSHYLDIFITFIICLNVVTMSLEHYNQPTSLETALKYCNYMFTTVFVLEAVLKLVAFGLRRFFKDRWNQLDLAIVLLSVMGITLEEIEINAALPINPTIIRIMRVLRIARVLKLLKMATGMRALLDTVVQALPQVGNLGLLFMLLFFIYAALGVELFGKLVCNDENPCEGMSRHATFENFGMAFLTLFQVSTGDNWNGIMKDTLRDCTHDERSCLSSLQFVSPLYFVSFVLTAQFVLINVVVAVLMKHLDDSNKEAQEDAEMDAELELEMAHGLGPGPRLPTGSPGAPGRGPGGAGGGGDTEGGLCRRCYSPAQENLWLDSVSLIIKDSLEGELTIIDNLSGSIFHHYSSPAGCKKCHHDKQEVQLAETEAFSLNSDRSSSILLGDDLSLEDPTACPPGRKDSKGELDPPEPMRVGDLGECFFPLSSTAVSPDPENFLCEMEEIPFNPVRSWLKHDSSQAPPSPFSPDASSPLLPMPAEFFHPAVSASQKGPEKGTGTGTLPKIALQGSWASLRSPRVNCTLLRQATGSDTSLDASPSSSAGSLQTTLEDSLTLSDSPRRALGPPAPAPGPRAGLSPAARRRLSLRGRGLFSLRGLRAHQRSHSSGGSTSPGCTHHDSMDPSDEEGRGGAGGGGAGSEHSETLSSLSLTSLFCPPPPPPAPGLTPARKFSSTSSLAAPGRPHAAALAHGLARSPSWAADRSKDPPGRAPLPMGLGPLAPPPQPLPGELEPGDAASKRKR

In the case of `CN1C(=O)CN=C(c2ccccc2)c2cc(Cl)ccc21` [Diazepam, diazepam, reference compound], in the assay with mouse elevated plus maze, the “count of the open arm entry” value is recorded as “increase significantly” and the “time spent in the open arm” value is given as “increase significantly”.

As to `C[C@@H](c1noc2ccccc12)S(N)(=O)=O` [Example 14, (1S)-1-(1,2-benzoxazol-3-yl)ethane-1-sulfonamide], the inhibition at 600 µM was 49.6% at human Cav3.1 (HEK293, 600 μmol/L, read-out: Cav3.1 % inhibitory rate); 33.8% at human Cav3.2 (HEK293, 600 μmol/L, read-out: Cav3.2 % inhibitory rate); 31.8% on human Cav3.3 (HEK293, 600 μmol/L, read-out: Cav3.3 % inhibitory rate). Further, the pIC50 at human Cav3.1 (dose-reactive test, read-out: Cav3.1 IC50 (parenthesized)) is 3.26; on human Cav3.2 (dose-reactive test, read-out: Cav3.2 IC50 (parenthesized)), 3.08; at human Cav3.3 (dose-reactive test, read-out: Cav3.3 IC50 (parenthesized)) it was 3.05; at Rat striatum MAOB, less than 3.22; against human CA-II it was 5.46. In addition, the “rotational number in the late phase (100-120 minutes)” value in assay [1] is on record as “significantly increased the rotational number in the late phase”. Also, the harmaline-induced tremor intensity entry in assay [2] was “inhibited harmaline-induced tremor”.

`CC(C)NCC(O)COc1cccc2ccccc12` (stereo not drawn) [β-Propranolol, β-propranolol, reference compound]: the harmaline-induced tremor intensity entry in assay [2] is listed as “significantly inhibited harmaline-induced tremor”.
